Experimental data: patent US20070249705A1, “N-(1-(2,3-Dihydro-1H-Inden-5Yl)-2-Oxo-3-Pyrrolidinyl)-Sulfonamide Derivatives for Use as Factor Xa Inhibitors” (priority 2004, published 2007)

Target: human Factor Xa (Homo sapiens, UniProt P00742)
Assay: In vitro fluorogenic assay for inhibition of Factor Xa
Type: biochemical
Conditions: Ki = IC50/1.6
Protocol: In Vitro Assay for Inhibition of Factor Xa
Compounds of the present invention were tested for their Factor Xa inhibitory activity as determined in vitro by their ability to inhibit human Factor Xa in a fluorogenic assay, using Rhodamine 110, bis-CBZ-glycylglycyl-L-arginine amide as the fluorogenic substrate. Compounds were diluted from a 10 mM stock solution in dimethylsulfoxide at appropriate concentrations. Assay was performed at room temperature using buffer consisting of: 50 mM Tris-HCl, 150 mM NaCl, 5 mM CaCl2, pH 7.4 containing human Factor Xa (final concentration of 0.0003 U.ml-1). Compound and enzyme were preincubated for 15 min prior to addition of the substrate (final concentration of 10 μM). The reaction was stopped after 3 hrs with the addition of H-D-Phe-Pro-Arg-Chloromethylketone. An LJL-Analyst fluorimeter was used to monitor fluorescence with 485 nm excitation/535 nm emission. To obtain IC50 values the data were analysed using ActivityBase® and XLfit®.
Calculation of Ki values:
Ki=IC50/(1+[Substrate]/Km)
The Ki value for the above assay can be obtained by dividing the IC50 value by 1.6.

Chain of human Factor Xa (P00742 235-488 limits assumed): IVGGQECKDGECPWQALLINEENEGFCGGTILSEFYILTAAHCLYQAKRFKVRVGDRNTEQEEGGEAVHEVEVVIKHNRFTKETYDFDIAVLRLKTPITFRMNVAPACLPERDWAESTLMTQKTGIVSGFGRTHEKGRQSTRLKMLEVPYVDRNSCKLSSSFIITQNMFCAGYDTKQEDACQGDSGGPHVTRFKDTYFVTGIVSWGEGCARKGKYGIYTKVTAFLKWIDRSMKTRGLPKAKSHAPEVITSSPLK
Chain of human Factor Xa (P00742 41-179 partner limits assumed): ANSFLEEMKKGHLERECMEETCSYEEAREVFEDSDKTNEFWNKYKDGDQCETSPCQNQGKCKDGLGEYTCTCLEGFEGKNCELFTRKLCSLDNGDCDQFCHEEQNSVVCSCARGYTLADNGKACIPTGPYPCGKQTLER

SMILES: CNC1CCc2cc(N3CC[C@H](N(C)S(=O)(=O)c4ccc5cc(Cl)ccc5c4)C3=O)ccc21 (stereo partly drawn) [Example 12, 6-Chloro-N-methyl-N-{(3S)-1-[1-(methylamino)-2,3-dihydro-1H-inden-5-yl]-2-oxo-3-pyrrolidinyl}-2-naphthalenesulfonamide]
- Ki: < 0.05 µM

SMILES: CN(C)C1CCc2cc(N3CCC(NS(=O)(=O)c4cc5ccc(Cl)cc5s4)C3=O)ccc21 (centres unmarked) [Example 3, 6-Chloro-N-{1-[1-(dimethylamino)-2,3-dihydro-1H-inden-5-yl]-2-oxo-3-pyrrolidinyl}-1-benzothiophene-2-sulfonamide]
- Ki: < 0.05 µM
